Measurements: patent US10100285B2, “Ex vivo proliferation of epithelial cells” (PROPAGENIX INC., priority 2015, dated 2018)

What was measured:
[1] = system: human bronchial epithelial cells (HBEC) and human foreskin keratinocytes (HFK); experiment: Dome-like structure formation at high CaCl2; type: cell-based; settings: CaCl2 raised to 1.5 mM in KSFM+A+Y, 7 to 10 days
Method: Dome-like structures formed in keratinocyte and bronchial epithelial cell cultures in the presence of high concentration of CaCl2. Specifically, late passage human bronchial epithelial cells (HBEC) and late passage human foreskin keratinocytes (HFK) cultured in KSFM supplemented with 1 μM A 83-01 and 5 μM Y-27632 (KSFM+A+Y) at low CaCl2 (90 μM) were allowed to reach confluence in 6-well plates. The cells remained in the KSFM+A+Y conditions and the CaCl2 concentration was raised to 1.5 mM to induce differentiation of the epithelial cells.

[2] = system: bronchial epithelial cells; experiment: Trans-epithelium electric resistance (TEER) of bronchial epithelial cells on […]; type: cell-based, human
Method: In a further investigation, effects of culture media calcium content on intercellular junctions was assessed for bronchial epithelial cells cultured in KSFM plus A83-01 and Y-27632. Intercellular junctions were assessed according to paracellular flow of ions as measured by trans-epithelium electric resistance (TEER). […] Bronchial epithelial cells were plated on porous membrane support ([…], Corning, 354474) and maintained for 7 days when the membrane was covered with culture medium (submerged phase, grayed box in FIG. 29, top panel). On day 8, the medium was removed from the apical side of the membrane, and the cells were exposed to air to induce further differentiation. Further, as shown in FIG. 29 (bottom panel), bronchial epithelial cells established increasing transmembrane electric resistance (TEER) over time in the presence of high concentration (1 mM) of CaCl2 in KSFM plus A 83-01 and Y-27632. Bronchial epithelial cells were plated on a porous membrane support ([…], Corning, 354474) and maintained for 24 days, with the membrane covered by culture medium for the duration of the culture. Trans-epithelium electric resistance (TEER) remained at a high level throughout the culture period.

[3] = system: human foreskin keratinocytes (HFK); experiment: Tight junction formation, ZO-1 immunofluorescence; type: cell-based; settings: CaCl2 raised to 1.5 mM in KSFM+A+Y
Method: Specifically, late passage human foreskin keratinocytes (HFK) cultured in KSFM supplemented with 1 μM A83-01 and 5 μM Y-27632 (KSFM+A+Y) at low CaCl2 (90 μM) were allowed to reach confluence. The cells remained in the KSFM+A+Y conditions and the CaCl2 concentration was raised to 1.5 mM to induce differentiation.

[4] = system: human bronchial epithelial cells; experiment: Effect of culture media calcium content on cell behavior; type: cell-based; settings: 1 mM CaCl2 in KSFM plus A83-01 and Y-27632
Method: Effects of culture media calcium content on cell behavior were assessed for epithelial cells cultured in KSFM plus A83-01 and Y-27632. Human bronchial epithelial cells were grown KSFM (with 90 μM CaCl2) plus A83-01 and Y-27632. These cells dispersed throughout the culture vessel (FIG. 28, left panel), and few cells formed intercellular connections, even when they were in close proximity to each other. […] Cells in the center of the patches tended to pile up, and boundaries between individual cells generally were not discernable. In certain instances, abnormal elongations formed between clusters.

[5] = system: human foreskin keratinocytes (HFK); experiment: Epidermal-like structure in air-liquid-interface differentiation (H&E); type: cell-based; settings: 1.5 mM CaCl2 in KSFM+A+Y, day 14
Method: Keratinocytes formed an epidermal-like structure over time in air-liquid-interface differentiation, in the presence of high concentration (1.5 mM) of CaCl2 in KSFM plus A 83-01 and Y-27632. Specifically, human foreskin keratinocytes (HFK) previously cultured in KSFM supplemented with 1 μM A83-01 and 5 μM Y-27632 (KSFM+A+Y) at low CaCl2 (90 μM) were plated on a porous membrane support ([…], Corning, 354474) and maintained for 14 days. The cells were covered by culture medium (KSFM+A+Y and 1.5 mM of CaCl2) for the first day and exposed to air for the remaining days. At the end of experiment (i.e., on day 14), the culture was fixed in 4% paraformaldehyde, embedded in paraffin and sectioned for haematoxylin and eosin staining (H&E) to reveal its structure.

[6] = system: human foreskin keratinocytes (HFK); experiment: TEER in air-liquid-interface differentiation of keratinocytes; type: cell-based; settings: 1.5 mM CaCl2 in KSFM+A+Y, 14 days
Method: Keratinocytes established increasing transmembrane electric resistance (TEER) over time in air-liquid-interface differentiation, in the presence of high concentration (1.5 mM) of CaCl2 in KSFM plus A 83-01 and Y-27632. Specifically, human foreskin keratinocytes (HFK) previously cultured in KSFM supplemented with 1 μM A83-01 and 5 μM Y-27632 (KSFM+A+Y) at low CaCl2 (90 μM) were plated on a porous membrane support ([…], Corning, 354474) and maintained for 14 days. The cells were covered by culture medium (KSFM+A+Y and 1.5 mM of CaCl2) for the first day (submerged phase, grayed box in FIG. 34) and exposed to air for the remaining days.

[7] = system: CD4+ and CD8+ T cells (human PBMCs); experiment: T cell proliferation, Cell Trace CFSE stained PBMCs with PHA co-incubated with hAECs; type: cell-based; settings: 48 hour preincubation of hAECs with interferon γ 100 ng/ml
Source text: Human Peripheral Blood Mononuclear Cells (PBMCs) were isolated and stained with Cell Trace CFSE (Thermo Fisher Scientific). Cell Trace CFSE is a cell permeable amine reactive fluorescent dye that non-specifically labels intracellular proteins. Through subsequent cell divisions each daughter cell receives approximately half of the label allowing for determination of the intensity of fluorescence by flow cytometry and correlation to the number of cell divisions. Cell Trace CFSE stained PBMCs were added to ˜80% confluent monolayers of hAECs from Donor 1 (P4) and Donor 2 (P4) expanded in KSFM A+Y. Upon addition of the stained PMBCs the media was changed to RPMI media with 10% FBS and 5 μg/ml phytohaemagglutinin (PHA). PHA is a potent mitotic agent used to activate and stimulate proliferation of lymphocytes. The expanded hAECs were used directly from growth conditions or after a 48 hour preincubation with Interferon γ (100 ng/ml; Thermo Fisher Scientific). This treatment can increase the immunosuppressive effect of hAECs. […] The degree of inhibition of proliferation was calculated by determining the number of cells that proliferated in the presence of hAECs relative to the number of cells that proliferated when exposed to PHA treatment alone (FIG. 45D). […]

hAECs = experiment: Effect of interferon γ on immunomodulatory gene expression in hAECs (qRT-PCR); type: cell-based, human; settings: 100 ng/mL, 48 hours
Method: In certain instances, treatment of hAECs with interferon γ (INFγ) leads to an upregulation of genes involved in immune suppression. However, cultured hAECs typically lose their functional phenotype (see e.g., cells tested at passage 5 in Pratama et al. 2011 PLoS ONE 6(11): e26136). In this example, hAECs isolated from two different donors (Donor 1 and Donor 2), were tested for their response to INFγ both in KSFM A+Y and after removal from growth conditions and placement into standard hAEC media (DMEM:F12 10% FBS). Cells from both donors grown in KSFM A+Y at passage 4 at ˜80% confluence were either kept in KSFM A+Y, changed to KSFM A+Y+100 ng/mL INFγ, or changed to DMEM:F12+/−100 ng/mL INFγ. The cells were left for an additional 48 hours in each condition. qRT-PCR was used to examine expression levels of HLA-G, Indoleamine 2,3-dioxygenase (IDO), and Programmed Death Ligand 1 (PD-L1) (see FIGS. 46A-46D).
HLA-G can have a wide variety of immunomodulatory effects on numerous immune cells. Expression of HLA-G is generally considered a prominent feature of hAECs, and often is lost during expansion in culture. […] IDO is the first and rate-limiting enzyme of tryptophan catabolism through the kynurenine pathway, thus causing depletion of tryptophan which can inhibit T cell proliferation. […] PD-L1 may play a major role in immune suppression, inhibiting the proliferation and inducing apoptosis of T cells.

## [Ca+2].[Cl-].[Cl-] [CaCl2]
[1]
  dome-like structure formation: Many dome-like structures were formed
[2]; high concentration (1 mM) in KSFM plus A 83-01 and Y-27632
  intercellular junctions (TEER): established tight intercellular junctions
[2]; low concentration (90 μM) in KSFM plus A 83-01 and Y-27632
  intercellular junctions (TEER): failed to establish tight intercellular junctions
[3]
  tight junction formation (ZO-1): Tight junction formation was observed
[4]
  cell behavior: aggregate into tight clusters
[5]
  epidermal-like structure formation: differentiated into multi-layer structures
[6]
  trans-epithelium electric resistance (TEER): reached very high levels

B1: interferon γ: Interferon γ (100 ng/ml; Thermo Fisher Scientific) (protein, UniProt P01579 24-161, looked up)
Interferon gamma: QDPYVKEAENLKKYFNAGHSDVADNGTLFLGILKNWKEESDRKIMQSQIVSFYFKLFKNFKDDQSIQKSVETIKEDMNVKFFNSNKKKRDDFEKLTNYSVTDLNVQRKAIHELIQVMAELSPAAKTGKRKRSQMLFRG
[7]
  inhibition of T cell proliferation by hAECs: increased
hAECs
  IDO expression: increases dramatically
  PD-L1 expression: dramatic increase in expression
hAECs; after moving cells to standard media (DMEM:F12)
  HLA-G expression: greatly increased
